Consider two compounds from BindingDB's records for doi:10.1021/jm960069a (University of Camerino, 1996).

This test has as its target Alpha-1B adrenergic receptor (Mesocricetus auratus) (UniProt P18841). The test is described as follows: Binding affinity towards Alpha-1B adrenergic receptor hamster smooth muscle using [3H]prazosin as radioligand.

pKi: −log10 of the molar value.

Alpha-1B adrenergic receptor (Mesocricetus auratus), sequence (P18841 whole entry, looked up): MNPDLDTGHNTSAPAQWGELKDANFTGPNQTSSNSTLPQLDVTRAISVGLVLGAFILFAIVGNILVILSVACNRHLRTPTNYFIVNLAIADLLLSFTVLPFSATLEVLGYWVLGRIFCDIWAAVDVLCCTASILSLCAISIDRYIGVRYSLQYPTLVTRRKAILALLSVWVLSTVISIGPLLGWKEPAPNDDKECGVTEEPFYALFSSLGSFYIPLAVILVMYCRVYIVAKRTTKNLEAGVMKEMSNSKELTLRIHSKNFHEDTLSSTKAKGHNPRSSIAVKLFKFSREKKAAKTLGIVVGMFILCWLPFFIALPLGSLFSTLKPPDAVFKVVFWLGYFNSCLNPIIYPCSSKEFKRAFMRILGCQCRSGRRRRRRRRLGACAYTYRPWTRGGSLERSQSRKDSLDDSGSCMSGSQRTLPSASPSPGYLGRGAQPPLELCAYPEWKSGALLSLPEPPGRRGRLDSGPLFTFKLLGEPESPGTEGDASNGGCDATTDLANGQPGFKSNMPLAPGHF

For orientation: pKi means the negative decadic logarithm of the Ki, by convention in mol/L. High values mean a small Ki, low ones a large Ki. Turning to `COc1cccc(OC)c1OCCNCC1Oc2ccccc2OC1c1ccc(C)cc1` (configuration not stated) [[2-(2,6-Dimethoxy-phenoxy)-ethyl]-(3-p-tolyl-2,3-dihydro-benzo[1,4]dioxin-2-ylmethyl)-amine], the pKi is 7.29.

Compound `COc1cccc(OC)c1OCCNC[C@@H]1Oc2ccccc2O[C@H]1c1ccc(C)cc1` [[2-(2,6-Dimethoxy-phenoxy)-ethyl]-((2S,3S)-3-p-tolyl-2,3-dihydro-benzo[1,4]dioxin-2-ylmethyl)-amine] gave a pKi of 7.68.
